From patent US4732977A, “Carbapenem antibiotics” (priority 1986, dated 1988)
Values after ≈ are worked out from the molar mass of the structure shown. Read-outs that look alike come from different tables or passages of the source.

Columns and labels:
S. faecalis A20688 = assay: M.I.C., tube dilution; assay type: cell-based; conditions: Enterococcus faecalis, A20688, overnight incubation at 37° C., Nutrient Broth; read-out: MIC
P. vulgaris A21559 = assay: M.I.C., tube dilution; assay type: cell-based; conditions: Proteus vulgaris, A21559, overnight incubation at 37° C., Nutrient Broth; read-out: MIC
[1] = Blood levels in mice after intramuscular administration; conditions: mouse, blood, im, 20 mg/kg;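 also: compounds dissolved in 0.1 M phosphate buffer at pH 7, data from one experiment using four mice for each compound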
Description: Compounds were solubilized in 0.1 M phosphate buffer pH 7.
a single test; 4 mice used per compound.
Compounds were solubilized in 0.1 M phosphate buffer, pH 7.
on a single test; 4 mice per compound.

S. pneumoniae A-9585 = assay: M.I.C., tube dilution; assay type: cell-based; conditions: Streptococcus pneumoniae, A9585; overnight incubation at 37° C., Nutrient Broth; read-out: MIC
S. pyogenes A-9604 = assay: M.I.C., tube dilution; assay type: cell-based; conditions: Streptococcus pyogenes, A9604; overnight incubation at 37° C., Nutrient Broth; read-out: MIC
P. aeruginosa A21213 = assay: M.I.C., tube dilution; assay type: cell-based; conditions: Pseudomonas aeruginosa
P. aeruginosa A-9843a = assay: animal or person; assay type: in vivo, mice; conditions: Pseudomonas aeruginosa, A9843A, in Mus musculus, im, read-out: PD50/treatment
Description: The PD50 (dose in mg/kg required to give protection to 50% of the infected mice) is indicated.
with drugs 0 and 2 hours postinfection.
The PD50 (dose in mg/kg) required to give protection to 50% of the infected mice is indicated.

[2] = Half-life (stability) in buffer solution; assay type: physicochemical; conditions: for half-life at 100 µM: 10^-4 M
Description: T1/2 =9.8 h (measured at a concentration of 10^-4 M in phosphate buffer pH 7.4 at 36.8° C.).
UV (phosphate buffer, pH 7.4) λmax 294 nm (ε=8,202); T1/2 (phosphate buffer, pH 7.4, M=0.967, T=37° C.) 9.1 h.
(c of 10^-4 M in pH 7.4 phosphate buffer.
.tau.1/2 =20.8 h measured at 37° C. in buffer (pG 7.4) for a concentration of 10^-4 M.
.tau.1/2 =12.5 h measured at 37° C. in buffer pH 7.4 for a concentration of 10^-4 M.
h (measured for a concentration of 10^-4 M at 36.8° C. in buffer pH 7.4).
.tau.1/2 =26.0 h (measured for a concentration of 10^-4 M at 36.8° C. in buffer pH 7.4).
.tau.1/2 =16.6 h (measured at 36.8° C., pH 7.4 for a concentration of 10^-4 M) and (5R, 6S) 6-(1R-hydroxyethyl)7-oxo-3-[1,2,6-trimethylpyridinium-4-yl)methylthio]-1-azabicyclo[3.2.0 hept-2-ene-2-carboxylate, 0.010 g, 0.7%;
.tau.1/2 =11.6 h (measured for a concentration of 10^-4 M at 36.8° C. in buffer pH 7.4).
.tau.1/2 =13.4 h (measured for a concentration of 10^-4 M at 36.8° C. in buffer pH 7.4).
.tau.1/2 =14.4 h (measured for a concentration of 10^-4 M at 36.8° C. in buffer pH 7.4).
T 1/2: 10.2 h (biological buffer).
.tau.1/2 =10.2 h measured at 36.8° C. for a concentration of 10^-4 M in buffer pH 7.4.

S. aureus A-9537 = assay: M.I.C., tube dilution; assay type: cell-based; conditions: Staphylococcus aureus, A9537; +50% serum; read-out: MIC
[3] = (phosphate) buffer pH 7.4, 36.8° C., read-out: T1/2 (half-life in solution) (converted)

Row | SMILES | MIC (P. vulgaris A21559) [mg/L] | AUC [1] [µg·h/mL] | Cmax [1] [µg/mL] | half-life [1] [h] | half-life at 100 µM [2, 3] [h] | other results
1 | C[C@@H](O)[C@H]1C(=O)N2C(C(=O)[O-])=C(SCc3scc[n+]3C)C[C@H]12 [Example 11, 3-[2-(N-Methylthiazolium)methylthio]-6α-[1-(R)-hydroxyethyl]-7-oxo-1-azabicyclo(3.2.0)hept-2-ene-2-carboxylate] | 0.03 (≈ 0.0881 µM) | 7.4 | 14.9 | 0.183 | – | MIC (S. faecalis A20688): 0.5 mg/L (≈ 1.47 µM)
2 | C[C@@H](O)[C@H]1C(=O)N2C(C(=O)[O-])=C(SCc3n(Cc4ccccc4)cc[n+]3C)C[C@H]12 [Example 13, 3-(N Methyl-N'-benzylimidazole-2-yl-methanethio)-6α-[1-(R)-hydroxyethyl]-7-oxo-1-azabicyclo(3.2.0)hept-2-ene-2-carboxylate] | 0.008 (≈ 0.0193 µM) | 6.4 | 14.8 | 0.183 | – | MIC (S. pneumoniae A-9585): 0.0005 mg/L (≈ 0.00121 µM); MIC (S. pyogenes A-9604): 0.0005 mg/L (≈ 0.00121 µM); MIC (P. aeruginosa A21213; A21213, overnight incubation at 37° C., Nutrient Broth, read-out: MIC): 2 mg/L (≈ 4.84 µM)
3 | C[C@@H](O)[C@H]1C(=O)N2C(C(=O)[O-])=C(SCc3cn(C)n[n+]3C)C[C@H]12 [Example 15 "A", 3-[4-(N,N-dimethyl-1,2,3-triazolium)methylthio]-6α-[1-(R)-hydroxyethyl]-7-oxo-1-azabicyclo(3.2.0)hept-2-ene-2-carboxylate] | 0.008 (≈ 0.0236 µM) | 9.5 | 16.7 | 0.2 | – | MIC (S. pneumoniae A-9585): 0.0005 mg/L (≈ 0.00148 µM); MIC (S. pyogenes A-9604): 0.0005 mg/L (≈ 0.00148 µM); ED50 (P. aeruginosa A-9843a): 0.39 mg/kg
4 | C[C@@H](O)[C@H]1C(=O)N2C(C(=O)[O-])=C(SCc3cs[n+](C)n3)C[C@H]12 [Example 16, (5R,6S) 6-(1R-hydroxyethyl)-3-(2-methyl-1,2,3-thiadiazolium-4-ylmethylthio)-7-oxo-1-azabicyclo[3.2.0]hept-2-ene-2-carboxylate] | 0.03 (≈ 0.0879 µM) | – | – | – | 9.8 | MIC (S. faecalis A20688): 1 mg/L (≈ 2.93 µM); MIC (P. aeruginosa A21213; A21213): 0.13 mg/L (≈ 0.381 µM)
5 | C[C@@H](O)[C@H]1C(=O)N2C(C(=O)[O-])=C(SCc3n(C)nc[n+]3C)C[C@H]12 [Example 19, 3-[5-(1,4-dimethyl-1,2,4-triazolium)-methanethio]-6α-[1-(R)-hydroxyethyl]-7-oxo-1-azabicyclo[3.2.0]hept-2-ene-2-carboxylate] | 0.016 (≈ 0.0473 µM) | 15.1 | 27 | 0.278 | – | MIC (S. aureus A-9537): 0.008 mg/L (≈ 0.0236 µM); half-life ([2]; phosphate buffer, pH 7.4, M=0.967, T=37° C., read-out: T1/2 (half-life in solution) (converted)): 9.1 h
6 | C[C@@H](O)[C@H]1C(=O)N2C(C(=O)[O-])=C(SCc3cncc[n+]3C)[C@H](C)[C@H]12 [Example 46, (5R,6S)-6-(1R-Hydroxyethyl)-4R-methyl-3-[(1-methyl-1,4-pyrazinium-2-yl)-methylthio]-7-oxo-1-azabicyclo[3.2.0]-hept-2-ene-2-carboxylate] | – | – | – | – | – | half-life ([2]; biological buffer, unit inferred, read-out: T1/2 (half-life in solution) (converted)): 12.3 h
7 | C[C@@H](O)[C@H]1C(=O)N2C(C(=O)[O-])=C(SCc3cn(C)[n+](C)c3)C[C@H]12 [Example 47] | – | – | – | – | – | half-life ([2]; biological buffer, read-out: T 1/2 (half-life in solution) (converted)): 15.2 h
8 | Cc1c(CSC2=C(C(=O)[O-])N3C(=O)[C@H]([C@@H](C)O)[C@H]3C2)sc[n+]1C [Example 50] | – | – | – | – | – | half-life at 100 µM ([2]; pH 7.4 phosphate buffer, temperature not given, read-out: half-life in solution (converted)): 11 h
9 | COCC[n+]1ccccc1CSC1=C(C(=O)[O-])N2C(=O)[C@H]([C@@H](C)O)[C@H]2C1 [Example 52, (5R,6S) 6-(1R-hydroxyethyl)-3-[{1-(2-methoxyethyl)pyridinium-2-yl}methylthio]-7-oxo-1-azabicyclo[3.2.0]hept-2-ene-2-carboxylate] | – | – | – | – | 9.9 | –
10 | C#CCC[n+]1ccccc1CSC1=C(C(=O)[O-])N2C(=O)[C@H]([C@@H](C)O)[C@H]2C1 [Example 53, (5R,6S) 3[(1-{but-3-yn-1-ylpyridinium-2-yl)}methylthio]-6-(1R-hydroxyethyl)-7-oxo-1-azabicyclo[3.2.0]hept-2-ene-2-carboxylate] | – | – | – | – | 10.2 | –
